Reference: patent US7923204B2, “Forward mutation assay based on 5-fluorouracil resistance” (priority 2003, dated 2011)
Like-named read-outs stand apart in the source and are kept apart here.

Columns and labels:
[1] = test system: FU100; conditions: for Results (5-FU assay): FU100, 2 h exposure; for Lowest Positive Dose: lowest dose tested giving a positive response; for response in the 5-FU Assay (in words): text and figure legend (FIG. 6), with or without S9
Method: Briefly, in order to practice the disclosed mutation assay one-ml aliquots of exponentially growing bacteria are exposed to the test agent for two hours in the presence and absence of a metabolic activation system, such as a mammalian (i.e., rat, hamster or human) liver homogenate (S9-fraction or liver microsomal enzymes). The aliquots are then diluted, allowed to grow for 3 hours, and assessed for treatment-related toxicity/inhibition by optical density. The cultures are subsequently diluted a second time and grown overnight to permit full recovery from toxicity and to allow expression of the FU^R phenotype. Samples of the cultures are then plated in 384-well microtiter dishes in the presence of 2 μg/ml 5-FU and the pH-sensitive indicator bromcresol purple. Three days later positive wells containing FU^R colonies are detected by their yellow color and enumerated. Treated cultures are then compared to control plates to determine genotoxic activity.
For each mutation experiment, two frozen 1-ml aliquots of FU100 were quickly thawed in a 37° C. water bath, pelleted by centrifugation, washed to remove the DMSO, and suspended in 35 mL of MinE medium. The culture was shaken for approximately 1 hour at 37° C. until the optical density at 600 nm (OD600) reached the target density of 0.3. A 16-ml aliquot of culture was added to each of two 50-ml tubes containing 3.6 ml of a NADPH-generating system (5.6 mM glucose-6-phosphate, 4.5 mM NADP+, 5 mM sucrose, 110 mM Na2HPO4, 37 mM KCl, and 9 mM MgCl2) and either 0.4 ml rat liver S-9 or an equal volume of sodium phosphate buffer. Aliquots of these mixtures were distributed into three 12-well cluster dishes (one for exposure with S-9, one for exposure without S-9, one for controls with and without S-9), and exposed to test compounds as 1-ml aliquots for 2 hour as outlined in FIG. 1.
Following treatment, the 1-ml aliquots were transferred into 9 ml of warm MinE medium in a 50 ml tube and incubated at 37° C. on a rotary wheel for 3 hours. Next, 20 ml of medium was added to each culture tube and 0.25 ml aliquots were transferred to a 96-well plate for OD600 measurements to assess toxicity (OD Day 1). […] Bulk cultures were then incubated overnight in the dark at 30° C. to permit recovery from toxicity and to allow time for the test cells to express the FU^R phenotype.
The next day, OD600 was again assessed to adjust cell number plated on 5-FU plates (OD Day 2; 100 μl of the culture diluted with 150 μl MinE medium for OD600 measurements). For plating, a 35 μl aliquot of each culture was added to 31.4 mL of MinE medium with 2 μg/ml of 5-FU and 10 μg/ml of bromcresol purple. The mixture was then dispersed into a 384-well plate (75 μl/well) and placed at 37° C. for 3 days in a humidified incubator.
The data obtained for both survival (OD day 1), relative number of cells plated (OD day 2), and number of positive wells were imported into an Excel template.
Table 8 summarizes the criteria for positive result in 5-FU assay using the FU100 tester strain described and claimed herein. […] A positive compound was defined when two or more doses met the aforementioned criteria.

[2] = test system: TA100, TA1535; conditions: TA100 or TA1535; plate incorporation or liquid suspension
From the text: As stated above, the Ames Salmonella his+ plate incorporation assay evaluates genotoxic activity (mutagenicity) of chemical compounds on a set of genetically modified bacterial tester strains that are auxotrophic for the amino acid histidine. In practice, the Ames Assay simultaneously evaluates the genotoxic activity of a potential mutagen on several different target genes. The standard Ames Assay utilizes several different tester strains, each with a distinct mutation (e.g., transition, frameshift etc.) in one of the genes comprising the histidine (his) biosynthetic operon. The his operon encodes enzymes required for the biosynthesis of the amino acid histidine. For example, strain TA98 contains the hisD3052 allele which is reverted by a frameshift mutation, while strain TA1535 contains the hisG46 allele which is reverted by transition and transversion mutations. More specifically, the Ames Assay evaluates the ability of a chemical agent to increase the rate of reversion of auxotrophic strains of Salmonella to prototrophy.

[3] = test system: FU100; conditions: approximate, first dose with greater than 50% survival by optical density on Day 1
[4] = test system: Salmonella; conditions: NTP Results Report 12 Aug. 2002 or cited reference (footnotes f, g, i, j); cited from earlier work
[5] = test system: chromosome aberrations; conditions: NTP Results Report 12 Aug. 2002; cited from earlier work
[6] = test system: sister chromatid exchange; conditions: NTP Results Report 12 Aug. 2002; cited from earlier work
[7] = test system: mouse lymphoma; conditions: NTP Results Report 12 Aug. 2002; cited from earlier work
[8] = test system: micronucleus; conditions: NTP Results Report 12 Aug. 2002; cited from earlier work
[9] = test system: TA100 his+
Method: A study was then conducted to determine the optimal concentration of the selective agent 5-FU. The growth rate was determined for cultures in MinE containing up to 8 μg/ml 5-FU.

[10] = test system: wild-type cells; experiment: Growth inhibition by 5-fluoroorotic acid (block of de novo pyrimidine synthesis); type: cell-based, Salmonella; conditions: 50 μg/ml; reversed by addition of 20 μg/ml uracil
From the text: It was recognized that reducing the background mutation frequency by eliminating preexisting FU^R mutants could increase the sensitivity of the assay. Since the only mechanism leading to 5-FU resistance in Salmonella involves loss of uracil phosphoribosyltransferase, a uracil salvage enzyme and product of the upp gene, it was theorized that blockage of the de novo pyrimidine synthesis and supplementation with uracil should permit growth of wild-type cells and selection against FU^R upp mutants.
It was also determined that upp mutants cannot grow in the presence of 5-fluorooroticacid and uracil, presumably due to their inability to utilize exogenous uracil. […] Frozen stocks of FU100 were prepared using cultures grown under these conditions (described in Materials and Methods) in order to produce “cleansed” working stocks with reduced background.

[11] = in the presence of S9 activation (+)

Row | SMILES | Results (5-FU assay) [1, 11] | Lowest Positive Dose [1, 11] [µg/mL] | response in the 5-FU Assay (in words) [1] | response in the 5-FU Assay (in words) ([1]; listed as 1,2-epoxybutane) | Results (5-FU assay) ([1]; without S9 activation (−)) | Lowest Positive Dose ([1]; without S9 activation (−)) [µg/mL] | response in the standard Ames assay (in words) [2] | LD50 [3, 11] [µg/mL] | LD50 ([3]; without S9 activation (−)) [µg/mL] | NTP Results: SA = Salmonella [4] | NTP Results: CA = chromosome aberrations [5] | NTP Results: SC = sister chromatid exchange [6] | NTP Results: ML = mouse lymphoma [7] | NTP Results: MN = micronucleus [8] | 5-FU concentration that significantly inhibited culture growth [9] | 5-FU concentration at which cultures continued to grow (longer doubling times) ([9]; cultures in MinE, up to 8 μg/ml 5-FU, data not shown) | effect on growth of wild-type cells [10]
1 | CCC1CO1 (stereo not shown) [1,2-Epoxybutane] | Pos | 500 | positive compounds in non-toxic concentrations | easy to detect | Pos | 8.9 | weak or equivocal response | >5000 | >5000 | + | + | + | + | − |  |  | 
2 | O=c1[nH]cc(F)c(=O)[nH]1 [5-FU, 5-fluorouracil] |  |  |  |  |  |  |  |  |  |  |  |  |  |  | greater than or equal to 1 μg/ml | less than or equal to 0.5 μg/ml | 
3 | O=C(O)c1[nH]c(=O)[nH]c(=O)c1F [5-fluorooroticacid, 5-fluoroorotic acid] |  |  |  |  |  |  |  |  |  |  |  |  |  |  |  |  | inhibited growth
4 | ClCc1ccccc1 [Benzyl Chloride] | Pos | 50 | easy to detect |  | Pos | 28 | weak or equivocal response | >150 | >1500 | +^w | + | + | + |  |  |  | 
5 | O=P1(N(CCCl)CCCl)NCCCO1 (stereo not shown) [Cyclophosphamide•H2O] | Pos^w | 1500 | weak positive |  | Neg |  | positive | >300 | >1500 | (SA+, CA+, SC+, MN+) | (SA+, CA+, SC+, MN+) | (SA+, CA+, SC+, MN+) |  | (SA+, CA+, SC+, MN+) |  |  | 
